Source: US10045984B2, “Combination therapy” (priority 2008, dated 2018)

Assays:
[1] = system: Influenza A, B and Rhino virus; assay: Group B randomized double blind trial in uncomplicated viral upper respiratory tract infection, with case reports; assay type: in vivo, human; settings: for clinical state at day 5 after starting treatment: n=5 per group; for clinical state: influenza type B
Source text: RT-PCR (reverse transcriptase-PCR) was used for subtyping and for detection of rhinovirus. RT-PCR is done on swabs. In the case of the patient groups, RT-PCR determined the presence of subtypes influenza H3, rhino virus and RSV. IFA and RT-PCR was repeated after treatment to ensure viral eradication from the patient.
Group B patients included 20 patients, aged 19 years to 57 years, 14 men and 6 women, with influenza but uncomplicated upper airway infection. […] The viruses identified were Influenza A, B and Rhino virus.
On day 3-5 of the illness (influenza) they received either a zinc/trimethoprim mixture, zinc, trimethoprim alone or vitamin C alone in a randomized double blind trial. The subjects were reviewed at 2 and 5 days after starting treatment.
The Tri-Z dose ranged between 100 mg (82 mg Tri and 18 mg zinc) to 200 mg (164 mg Tri and 36 mg zinc) twice daily. Trimethoprim only was administered in quantities of between 100 mg and 200 mg twice daily. Zinc only was administered in quantities of 50 mg three times daily. Vitamin C was administered in 1 g quantities twice daily.
Points on the graph shown in FIG. 6 are group means (for n=5) which highlights the difference in illness duration. […] Repeat IFA and RT-PCR tests were negative by day 2.
(i) person presented with headache, no photophobia, body ache, feeling tired and lethargic, blocked runny nose, dry throat and feeling hot for the last 4 days. Temperature was 38.5 C, respiratory rate 18/min, heart rate 75/min regular, BP 115/70 mmHg, clear nasal discharge, blood shot eyes, clear throat. Chest was clear with normal breath sounds. No cervical lymph nodes.
Nasal aspirate and throat swab was taken for virus and bacteria. […] Cultures were negative for bacterial growth at 48 and 72 hours.
They were commenced on the zinc/trimethoprim mixture twice daily (initial dose 200 mg of trimethoprim and 100 mg zinc sulphate for first dose then reduced to 100 mg of trimethoprim and 50 mg of zinc sulphate given simultaneously on an empty stomach) for 5 days.
(ii) person presented with body ache, generally feeling tired, blocked runny nose, sore eyes, dry throat, headache and feeling hot for the last 4 days. Their temperature was 38 C. Their chest was clear with normal breath sounds. Respiratory rate 16/min, heart rate 84/min regular, BP 135/78 mmhg. Nasal aspirate and throat swabs was taken for virus and bacteria.
Bacterial culture at 48 and 72 hours were negative.
(iii) person presented with feeling hot, blocked nose that is runny, headache, body ache, dry cough, sore eyes for last 4 days.
Temperature was 38.5 C, heart rate 60/min, respiratory rate 16/min, BP 120/70 mmHg, chest clear with normal breath sounds, no lymphadenopathy, conjunctival congestion, throat clear.
Nasal aspirate and throat swab were taken for virus and bacteria. They were started on Trimethoprim 200 mg twice daily for 5 days.

viral replication = settings: cited from earlier work
[2] = case (ii) person, day 5 after treatment

With `O=C1O[C@H]([C@@H](O)CO)C(O)=C1O` [vitamin C] the “clinical state at day 5 after starting treatment” value [1] was “not back to normal”.

In the case of `O=S(=O)([O-])[O-].[Zn+2]` [zinc sulphate], the repeat viral test ([1]; case (ii) person, 2 days after treatment) is reported as “influenza type B”, the control of symptoms [1, 2] is reported as “ineffective” and the “nasal aspirate viral test” value [1, 2] is reported as “influenza type B”. The clinical state ([1]; case (ii) person, 100 mg twice daily, 2 days after treatment) was “the same” and the “day of the illness of return to work” value ([1]; case (ii) person, still feeling unwell) was 14 days.

In the case of `[Zn]` [zinc], the “clinical state at day 5 after starting treatment” value [1] is given as “not back to normal” and the “concentration in a subject that affects viral replication” value (viral replication) is given as 0.05 mMolar.

For `COc1cc(Cc2cnc(N)nc2N)cc(OC)c1OC` [trimethoprim, 5-(3,4,5-trimethoxybenzyl)pyrimidine-2,4-diamine], the “nasal aspirate viral test” value ([1]; case (iii) person, day 5 of treatment) was “influenza type B”, the temperature ([1]; case (iii) person, day 5 of treatment, 38.5 C before) was 37.8 C and the clinical state ([1]; case (iii) person, 200 mg twice daily, 2 days later) was “the same”. For the same compound, the “day of the illness when recovery started” value ([1]; case (iii) person, well enough to go back to work) was 14 days and the “clinical state at day 5 after starting treatment” value [1] was “not back to normal”.
